Assay results reported in paper PMC12990037, “Discovery of Two Structurally Distinct Classes of Inhibitors Targeting the Nuclease MUS81 and Enhancing Efficacy of Chemotherapy in Cancer Cells” (Journal of Medicinal Chemistry, 2026).

Key:
U2OS cells = assay: Colony formation assay (CFA); type: cell-based; conditions: 10–12 days
Procedure: 6 MUS81 inhibition induces persistent DNA damage leading to reduced cell survival. (A) U2OS cells were treated with DMSO, cisplatin as a positive control, control or MUS81-targeting siRNA, MU262, MU876, and their negative control counterparts at the indicated concentrations for 72 h. Representative images show staining of a DNA damage marker γH2AX in green with counterstaining of DAPI in blue. The concentration of all inhibitors shown in (A) is 2.5 μM. (B) DNA damage was assessed by quantifying γH2AX foci per nucleus from (A) using CellProfiller software. The graph represents percentage (%) of cells with ≥20 γH2AX foci per nucleus across different concentrations of inhibitors. n = 3; error bars represent s.d. (C) Indicated number of U2OS cells was transfected with a nontargeting siRNA (siCon) or MUS81-targeting siRNA (siMUS81) seeded for a CFA. […] (D) Quantification of (C), error bars represent s.d.; ****p <0.0001 (unpaired, two-tailed t-test). […] (F) Quantification of (E) using a nonlinear regression fitting model. n = 3. […] (H) Quantification of (G) using a nonlinear regression fitting model. n = 3.
Cells were trypsinized, plated at the desired density in 6-well plates for colony forming assay, and then incubated for 10 days. […] The colonies were then solubilized using 10% acetic acid solution, and absorbance was measured with a plate reader. […]

EJ5-GFP cells = assay: I-SceI-based NHEJ repair reporter assay; type: cell-based; conditions: 72 h
Procedure: 3 MUS81 inhibitors suppress HR and BIR. (A) I-SceI-based BIR repair efficiency was measured in U2OS BIR-GFP cells treated with DMSO, two different siRNAs targeting MUS81, or the indicated concentrations of MU262 and MU876, and their control analogues for 72 h. The percentage of repair was normalized to the DMSO-treated control (D). n = 3. Error bars represent standard deviation (s.d.); ****p <0.0001 (unpaired, two-tailed t-test). […] (C,D) I-SceI-based HR (C) and NHEJ (D) repair efficiency was measured using U2OS DR-GFP and EJ5-GFP cells, respectively, following treatment with DMSO, MU262,MU876, or their control analogues for 72 h. The percentage of repair was normalized to the DMSO-treated control. n = 3. Error bars represent s.d.; *p <0.05, **p <0.01, ****p <0.0001 (unpaired, two-tailed t-test).
Reporter DR-GFP and […] U2OS cells along with BIR-GFP cells were transfected with 2.5 μg of I-SceI-expressing pCAGGS vector and subsequently treated with MUS81 inhibitors at the indicated concentrations. After transfection (72 h), cells were trypsinized and resuspended in 3% BSA in PBS. GFP fluorescence detection was carried out using a BD FACSVerse flow cytometer, and the data were analyzed with FlowJo software (BD Life Sciences). Data presented in the graph were normalized to the DMSO-treated sample.

[1] = test system: major cytochrome P450 isoforms; assay: Cytochrome P450 inhibition; type: in vitro ADME
ALT-positive U2OS cells = assay: Detection of TFEs by FISH on metaphase spreads; type: cell-based; conditions: 48 h
Procedure: (§1) 5 Small-molecule inhibitors of MUS81 mimic the effect of siRNA-mediated MUS81 depletion in cells. (A) U2OS cells were treated with DMSO, MUS81-targeting siRNA, MU262, MU876, or their respective control analogues for 48 h. Cytochalasin B (1.25 μg/mL) was added 16 h before harvest to prevent cytokinesis. […] (B) Representative images corresponding to the selected conditions from (A). (C) U2OS and (D) HeLa cells were incubated with DMSO, the indicated inhibitors, and their respective control analogues for 48 h. Nocodazole (200 ng/mL) was added for 5 h prior to the end of treatment to arrest cells in mitosis. Mitotic cells were collected by shake-off, and telomere fragility events (TFEs) were quantified manually for each metaphase spread. At least 70 metaphase spreads were quantified per condition. n = 3; error bars represent s.d.; ***p < 0.001, ****p < 0.0001 (ordinary One-way ANOVA).
(§2) U2OS and HeLa cells were seeded in 10 cm dishes. The next day, the medium was changed, and compounds were added at desired concentrations. This process was repeated after 43 h except that compounds were added together with 200 ng/mL of nocodazole. Cells were collected 5 h later by shake-off and incubated in 75 mM KCl at 37 °C for 10 min. Chromosomes were fixed in ice-cold methanol/acetic acid (3:1) and spread on glass slides. Slides were then treated with 20 μg/mL RNase A (Sigma-Aldrich), in 1x PBS at 37 °C for 1 h, fixed in 4% formaldehyde (Sigma-Aldrich) in 1x PBS for 2 min, and treated with 70 μg/mL pepsin (Sigma-Aldrich) in 2 mM glycine, pH 2 (Sigma-Aldrich) at 37 °C for 5 min. Slides were fixed again with 4% formaldehyde in 1x PBS for 2 min, incubated subsequently in 70%, 90%, and 100% ethanol for 5 min each, and air-dried. A C-rich telomeric PNA probe (5′-AF568-OO-p4[…]-3′; Panagene) diluted in hybridization solution (10 mM Tris–HCl pH 7.2, 70% formamide, 0.5% blocking solution (Roche)) was applied onto the slides followed by incubation at 80 °C for 5 min and at room temperature for 2 h. Slides were washed twice in 10 mM Tris–HCl pH 7.2, 70% formamide, and 0.1% BSA and three times in 100 mM Tris–HCl pH 7.2, 150 mM NaCl, and 0.08% Tween-20 at room temperature for 10 min each. DNA was counterstained with 100 ng/mL DAPI (Sigma-Aldrich) in 1x PBS and slides were mounted in Vectashield (Vector Labs). Images were acquired with a Zeiss Cell Observer equipped with a cooled Axiocam 506 m camera and a 63X/1.4NA oil DIC M27 PlanApo N objective. Image analysis was performed using ImageJ and Photoshop software (Adobe Inc.).

HeLa cells = assay: Detection of TFEs by FISH on metaphase spreads; type: cell-based; conditions: 48 h
Procedure: as §1, §2

SMILES | clonogenic cell survival (U2OS cells) | effect on NHEJ (EJ5-GFP cells) | inhibition of major cytochrome P450 isoforms [1] | telomere-free ends (TFEs) (ALT-positive U2OS cells) | telomere-free ends (TFEs) (HeLa cells)
CCc1nn2c(O)c(-c3nc4ccccc4[nH]3)nnc2c1-c1ccc(F)cc1 [Compound 18, 3-(1H-Benzo[d]imidazole-2-yl)-7-ethyl-8-(4-fluorophenyl)pyrazolo[5,1-c][1,2,4]triazin-4-ol] | significantly decreased cell survival | no negative effect | do not significantly inhibit major cytochrome P450 isoforms | significantly increased the presence of telomere-free ends (TFEs) | but not in telomerase-positive and ALT-negative HeLa cells
Cc1cc(=O)[nH]c(-n2nc(-c3ccccc3)cc2NC(=O)c2cc(-c3ccccc3)on2)n1 [Compound 32, N-(1-(4-Methyl-6-oxo-1,6-dihydropyrimidin-2-yl)-3-phenyl-1H-pyrazol-5-yl)-5-phenylisoxazole-3-carboxamide] | significantly decreased cell survival | no negative effect | do not significantly inhibit major cytochrome P450 isoforms | significantly increased the presence of telomere-free ends (TFEs) | but not in telomerase-positive and ALT-negative HeLa cells
